Blank lines part the entries; values can stand above or below the substance they belong to. Where no end group is shown, it is not given here. [ ]: non-standard residue; d: D form.
Columns and labels:
[1] = target: IL-8 receptors on human neutrophils (human); experiment: inhibition of 125I-IL-8 (10^-12 M) binding to human neutrophils, peptide 100 µM
[2] = test system: IL-8 receptors on neutrophils; experiment: Inhibition of 125I-labeled IL-8 binding to human neutrophils; conditions: for % Binding Inhibition (IL-8 binding to neutrophils): synthetic peptides, standard assay (Table 6)
Method: Therefore, in pursuing this aim, the present inventors assayed various other peptide compositions for IL-8 inhibitory activity by screening a library of 400 groups of hexapeptides. In these screening assays, ^125I-labeled interleukin-8 (10^−12 M) was mixed with 100 μM peptide, then added to neutrophils and incubated at 4° C. for 90 min. The bound radioactivity was separated from unbound by centrifugation through a dense cushion of a mixture of paraffin and silicon oils and the ^125I bound to neutrophils was counted in a gamma radiation spectrometer, allowing the results to be expressed as the percent of IL-8 binding which was inhibited.
The use of human subjects for acquisition of neutrophils was approved by the Institutional Review Board for human experimentation. For the preparation of neutrophils, human blood was anticoagulated with heparin for enzyme release studies and with 0.33% sodium citrate for other studies. For chemotactic and enzyme release studies neutrophils were separated by dextran sedimentation and erythrocyte lysis by the method of Boyum (Kohler and Milstein, 1975). For binding studies and cytotoxic studies, the neutrophils were further purified in gradients of Percoll (Pharmacia Fine Chemicals, Piscataway, N.J.) to a purity of 90-93% (Kohler and Milstein, 1975).
Recombinant human IL-8 (72 amino acids; Pepro Tech Inc., Rocky Hill, N.J.) was radioactively labeled with ^125I by the chloramine T method of Hunter and Greenwood (Hunter and Greenwood, 1962). Binding studies were performed according to Besemer et al. (1989), as follows: Neutrophils in phosphate buffered saline pH 7.4 (PBS) containing 0.1% bovine serum albumin (BSA) were incubated with labeled ligand in the presence or absence of the peptide being tested for 90 min at 4° C. to reach equilibrium and then centrifuged at 12,000×g for 3 min in Beckman B microfuge (Beckman Instruments, Fullerton, Calif.), through a cushion consisting of a mixture of paraffin oil Fisher Scientific, Fair Lawn, N.J.) and silicon oil (Serva Co., N.Y., N.Y.). The pellet and supernatant were then counted in a gamma radiation spectrometer. The non-specific binding was estimated to measure the binding in the presence of 100-fold excess of non-labeled ligand. The binding constants were calculated using the computer programs Lundon I and Lundon II.
In these studies, a screening for inhibition was carried out at 100 μM concentration of the peptide being tested, with a 10^−12 M concentration of IL-8. In the first series of studies, twenty peptides were synthesized with the carboxyl-terminal residue of RRWWCX (SEQ ID NO:23) being changed to each of the standard protein amino acids in turn.

[3] = target: IL-8 receptors on human neutrophils (human); experiment: inhibition of 125I-IL-8 binding to human neutrophils, method of Example I; D-amino acid heptamer series
[4] = first set of heptamer studies, D-amino acid RRWWCRX series, methodology of Example I
[5] = 100 μM peptide, 10^−12 M IL-8, hexamer RRWWCX series, first screen

- % INHIB. [1]: 110%
Substance: RRWWCK (peptide)

Substance: Arg Arg Trp Trp Cys Arg Gln ([dR][dR][dW][dW][dC][dR][dQ]) [rrwwcrq]
- % INHIB. (IL-8 binding to neutrophils) [2, 4]: 89.2%

- % INHIB. [1]: 69%
Substance: RRWWCM (peptide)

Substance: RRWWCP
- % INHIB. (IL-8 binding to neutrophils) [2, 5]: 88.3%

Substance: Arg Arg Trp Trp Cys Arg Glu ([dR][dR][dW][dW][dC][dR][dE]) [rrwwcre]
- % INHIB. (IL-8 binding to neutrophils) [2, 4]: 99.1%

Substance: RRWWCL
- % INHIB. (IL-8 binding to neutrophils) [2, 5]: 86.9%

Substance: Arg Arg Trp Trp Cys Arg Ile ([dR][dR][dW][dW][dC][dR][dI]) [rrwwcri]
- % INHIB. (IL-8 binding to neutrophils) [2, 4]: 93.9%

Substance: RRWWCT
- % INHIB. (IL-8 binding to neutrophils) [2, 5]: 88.4%

Substance: Arg Arg Trp Trp Cys Arg Thr ([dR][dR][dW][dW][dC][dR][dT]) [rrwwcrt]
- % INHIB. (IL-8 binding to neutrophils) [2, 4]: 56.3%

Substance: Arg Arg Trp Trp Cys Arg Ala ([dR][dR][dW][dW][dC][dR][dA]) [rrwwcra]
- % INHIB. (IL-8 binding to neutrophils) [2, 4]: 95.3%

Substance: RRWWCY
- % INHIB. (IL-8 binding to neutrophils) [2, 5]: 77.9%

- % INHIB. [1]: 88.4%
Substance: RRWWCT (peptide)

- % INHIB. [1]: 86.8%
Substance: RRWWCG (peptide)

- % INHIB. [3]: 89.2%
Substance: rrwwcrv (peptide)

- % INHIB. [3]: 108%
Substance: rrwwcrg (peptide)

- % INHIB. [1]: 17.1%
Substance: RRWWCE (peptide)

- % INHIB. [1]: -12%
Substance: RRWWCN (peptide)

Substance: Arg Arg Trp Trp Cys Arg His ([dR][dR][dW][dW][dC][dR][dH]) [rrwwcrh]
- % INHIB. (IL-8 binding to neutrophils) [2, 4]: 107.0%

Substance: RRWWCS
- % INHIB. (IL-8 binding to neutrophils) [2, 5]: 79.3%

Substance: RRWWCC (cysteine pairing not given here)
- % INHIB. (IL-8 binding to neutrophils) [2, 5]: 75.1%

Substance: ELRMQMIKTY [reference compound]
- ability to inhibit IL-8 binding to neutrophils [2]: None of these peptides had the ability to inhibit IL-8 binding
- % Binding Inhibition (IL-8 binding to neutrophils) [2]: −6.9 ± 3.0%

- % INHIB. [3]: 99.1%
Substance: rrwwcrl (peptide)

- % INHIB. [1]: 11.8%
Substance: RRWWCD (peptide)

- % INHIB. [1]: 81.1%
Substance: RRWWCV (peptide)

- % INHIB. [3]: 70.4%
Substance: rrwwcrs (peptide)

- % INHIB. [3]: 96.2%
Substance: rrwwcrm (peptide)

Substance: ELRSQSIKTY [reference compound]
- ability to inhibit IL-8 binding to neutrophils [2]: None of these peptides had the ability to inhibit IL-8 binding
- % Binding Inhibition (IL-8 binding to neutrophils) [2]: 5.8 ± 3.9%

Substance: RRWWCM
- % INHIB. (IL-8 binding to neutrophils) [2, 5]: 69.0%

- % INHIB. [1]: 51.9%
Substance: RRWWCA (peptide)

- % INHIB. [3]: 99.1%
Substance: rrwwcre (peptide)

- % INHIB. [3]: 95.3%
Substance: rrwwcra (peptide)

- % INHIB. [1]: 86.9%
Substance: RRWWCL (peptide)

- % INHIB. [3]: 103%
Substance: rrwwcrr (peptide)

Substance: RRWWCN
- IL-8 binding inhibition at lower peptide concentration (FIG. 1) ([2]; 20 μM peptide): did indeed exhibit certain inhibitory properties
- % INHIB. (IL-8 binding to neutrophils) [2, 5]: −12.0%

Substance: Arg Arg Trp Trp Cys Arg Cys (Ac-[dR][dR][dW][dW][dC][dR][dC]-NH2; not fully specified; printed as Arg Arg Trp Trp Cys Arg Cys; cysteine pairing not given here) [rrwwcrc]
- potency as inhibitor relative to Ac-rrwwcr-NH2 [2]: almost four times as potent
- inhibition of IL-8 binding to neutrophils ([2]; 10 μM peptide (FIG. 9)): 80%
- % INHIB. (IL-8 binding to neutrophils) [2, 4]: 107.7%
- more effective than the next best heptamer peptide ([2]; lower peptide concentration (FIG. 9)): ~56%

- % INHIB. [1]: 19.2%
Substance: RRWWCQ (peptide)

Substance: Arg Arg Trp Trp Cys Arg Gly ([dR][dR][dW][dW][dC][dR]G) [rrwwcrg]
- % INHIB. (IL-8 binding to neutrophils) [2, 4]: 108.0%

Substance: Arg Arg Trp Trp Cys Arg Met ([dR][dR][dW][dW][dC][dR][dM]) [rrwwcrm]
- % INHIB. (IL-8 binding to neutrophils) [2, 4]: 96.2%

- % INHIB. [3]: 107%
Substance: rrwwcrd (peptide)

- % INHIB. [3]: 107%
Substance: rrwwcrh (peptide)

Substance: RRWWCG
- % INHIB. (IL-8 binding to neutrophils) [2, 5]: 86.8%

- % INHIB. [3]: 93.9%
Substance: rrwwcri (peptide)

- % INHIB. [3]: 85.4%
Substance: rrwwcry (peptide)

Substance: Arg Arg Trp Trp Cys Arg Pro ([dR][dR][dW][dW][dC][dR][dP]) [rrwwcrp]
- % INHIB. (IL-8 binding to neutrophils) [2, 4]: 87.3%

- % INHIB. [1]: 88.3%
Substance: RRWWCP (peptide)

- % INHIB. [1]: 45.8%
Substance: RRWWCI (peptide)

Substance: Arg Arg Trp Trp Cys Arg Arg ([dR][dR][dW][dW][dC][dR][dR]) [rrwwcrr]
- % INHIB. (IL-8 binding to neutrophils) [2, 4]: 102.8%

- % INHIB. [1]: 79.3%
Substance: RRWWCS (peptide)

Substance: Arg Arg Trp Trp Cys Arg Trp ([dR][dR][dW][dW][dC][dR][dW]) [rrwwcrw]
- % INHIB. (IL-8 binding to neutrophils) [2, 4]: 106.3%

Substance: ELRCQCIKTY [IL-8 homologue including the C-X-C motif, reference compound]
- ability to inhibit IL-8 binding to neutrophils [2]: None of these peptides had the ability to inhibit IL-8 binding
- % Binding Inhibition (IL-8 binding to neutrophils) [2]: 7.6 ± 2.1%

- % INHIB. [3]: 113%
Substance: rrwwcrk (peptide)

- % INHIB. [3]: 106%
Substance: rrwwcrw (peptide)

Substance: RRWWCW
- % INHIB. (IL-8 binding to neutrophils) [2, 5]: 66.4%

- % INHIB. [3]: 56.3%
Substance: rrwwcrt (peptide)

Substance: RRWWCQ
- % INHIB. (IL-8 binding to neutrophils) [2, 5]: 19.2%

Substance: Arg Arg Trp Trp Cys Asp (Ac-RRWWCD; also: D-amino acids, positions not given here)
- ability to inhibit IL-8 binding to neutrophils [2]: only minimally active
- % INHIB. (IL-8 binding to neutrophils) [2, 5]: 11.8%

- % INHIB. [1]: 66.4%
Substance: RRWWCW (peptide)

Substance: GWRRWWCDAVLY [segment of cell surface glycoprotein CD11c precursor, human leukocyte adhesion receptor p150,95 alpha chain, reference compound]
- ability to inhibit IL-8 binding to neutrophils [2]: lack of activity
- % Binding Inhibition (IL-8 binding to neutrophils) [2]: −12.9 ± 2.9%

Substance: Arg Arg Trp Trp Cys Arg Val ([dR][dR][dW][dW][dC][dR][dV]) [rrwwcrv]
- % INHIB. (IL-8 binding to neutrophils) [2, 4]: 89.2%

Substance: Arg Arg Trp Trp Cys Arg Asp ([dR][dR][dW][dW][dC][dR][dD]) [rrwwcrd]
- % INHIB. (IL-8 binding to neutrophils) [2, 4]: 107.0%

Substance: RRWWCF
- % INHIB. (IL-8 binding to neutrophils) [2, 5]: 80.2%

- % INHIB. [1]: 77.9%
Substance: RRWWCY (peptide)

Substance: Arg Arg Trp Trp Cys Arg Asn ([dR][dR][dW][dW][dC][dR][dN]) [rrwwcrn]
- % INHIB. (IL-8 binding to neutrophils) [2, 4]: 110.8%

Substance: RRWWCV
- % INHIB. (IL-8 binding to neutrophils) [2, 5]: 81.1%

Substance: Arg Arg Trp Trp Cys Arg Phe ([dR][dR][dW][dW][dC][dR][dF]) [rrwwcrf]
- % INHIB. (IL-8 binding to neutrophils) [2, 4]: 105.6%

Substance: Arg Arg Trp Trp Cys Arg Lys ([dR][dR][dW][dW][dC][dR][dK]) [rrwwcrk]
- % INHIB. (IL-8 binding to neutrophils) [2, 4]: 113.1%

- % INHIB. [3]: 106%
Substance: rrwwcrf (peptide)

Substance: Ac-KELRCQ-NH2 [IL-8 homologue peptide, reference compound]
- ability to inhibit IL-8 binding to neutrophils [2]: None of these peptides had the ability to inhibit IL-8 binding
- % Binding Inhibition (IL-8 binding to neutrophils) [2]: −0.4 ± 11.8%

Substance: Arg Arg Trp Trp Cys Arg Ser ([dR][dR][dW][dW][dC][dR][dS]) [rrwwcrs]
- % INHIB. (IL-8 binding to neutrophils) [2, 4]: 70.4%

- % INHIB. [1]: 87.9%
Substance: RRWWCH (peptide)

- % INHIB. [3]: 89.2%
Substance: rrwwcrq (peptide)

Substance: RRWWCI
- % INHIB. (IL-8 binding to neutrophils) [2, 5]: 45.8%

- % INHIB. [1]: 75.1%
Substance: RRWWCC (peptide)

Substance: RRWWCK
- % INHIB. (IL-8 binding to neutrophils) [2, 5]: 110.3%

Substance: RRWWCE
- % INHIB. (IL-8 binding to neutrophils) [2, 5]: 17.1%

Substance: Arg Arg Trp Trp Cys Arg Leu ([dR][dR][dW][dW][dC][dR][dL]) [rrwwcrl]
- % INHIB. (IL-8 binding to neutrophils) [2, 4]: 99.1%

- % INHIB. [3]: 87.3%
Substance: rrwwcrp (peptide)

- % INHIB. [1]: 80.2%
Substance: RRWWCF (peptide)

- % INHIB. [3]: 111%
Substance: rrwwcrn (peptide)

Substance: Arg Arg Trp Trp Cys Arg Tyr ([dR][dR][dW][dW][dC][dR][dY]) [rrwwcry]
- % INHIB. (IL-8 binding to neutrophils) [2, 4]: 85.4%

Substance: RRWWCA
- % INHIB. (IL-8 binding to neutrophils) [2, 5]: 51.9%

Substance: RRWWCH
- % INHIB. (IL-8 binding to neutrophils) [2, 5]: 87.9%

From patent publication US6355619B1, “Peptide tumor cell growth inhibitors” (Board of Regents, The University of Texas System, priority 1996, dated 2002)
